Source: ChEMBL document CHEMBL1134724, “Novel (4-piperazin-1-ylquinolin-6-yl) arylsulfonamides with high affinity and selectivity for the 5-HT(6) receptor” (Bioorg Med Chem Lett, 2001)
Values belong to the compound of their own block, whether it stands above or below them.

Key:
D(3) dopamine receptor = D(3) dopamine receptor (Homo sapiens, UniProt P35462); assay: Binding affinity to human cloned Dopamine receptor D3 in CHO cells using [125I]- iodosulpride as radioligand; type: cell-based
[1] = target: 5-hydroxytryptamine receptor 1D (Homo sapiens, UniProt P28221); assay: Binding affinity to human cloned 5-hydroxytryptamine 1D receptor in CHO cells using [3H]5-HT as radioligand; type: cell-based
[2] = target: 5-hydroxytryptamine receptor 7 (Homo sapiens, UniProt P34969); assay: Binding affinity to human cloned 5-hydroxytryptamine 7 receptor in HEK 293 cells using [3H]-5-CT as radioligand; type: cell-based, HEK293
D(2) dopamine receptor = D(2) dopamine receptor (Homo sapiens, UniProt P14416); assay: Binding affinity to human cloned Dopamine receptor D2 in CHO cells using [125I]- iodosulpride as radioligand; type: cell-based
[3] = target: T1, 5-hydroxytryptamine receptor 6 (Homo sapiens, UniProt P50406); assay: Binding affinity to human cloned 5-HT6 receptor in HeLa cells using [3H]- LSD as radioligand; type: cell-based
[4] = target: 5-hydroxytryptamine receptor 1B (Homo sapiens, UniProt P28222); assay: Binding affinity to human cloned 5-hydroxytryptamine 1B receptor in CHO cells using [3H]5-HT as radioligand; type: cell-based
[5] = target: 5-hydroxytryptamine receptor 2B (Homo sapiens, UniProt P41595); assay: Binding affinity to human cloned 5-HT2B receptor in HEK 293 cells using [3H]- -5-HT as radioligand; type: cell-based, HEK293
[6] = target: T1, 5-hydroxytryptamine receptor 6; assay: Binding affinity against human 5-hydroxytryptamine 6 receptor
[7] = target: 5-hydroxytryptamine receptor 2A (Homo sapiens, UniProt P28223); assay: Binding affinity to human cloned 5-hydroxytryptamine 2A receptor in HEK 293 cells using [3H]- ketanserin as radioligand; type: cell-based, HEK293
[8] = target: T2, 5-hydroxytryptamine receptor 1A (Homo sapiens, UniProt P08908); assay: Binding affinity to human cloned 5-hydroxytryptamine 1A receptor in HEK 293 cells using [3H]-8-OH- DPAT as radioligand; type: cell-based, HEK293
T2 sequence (P08908 whole entry): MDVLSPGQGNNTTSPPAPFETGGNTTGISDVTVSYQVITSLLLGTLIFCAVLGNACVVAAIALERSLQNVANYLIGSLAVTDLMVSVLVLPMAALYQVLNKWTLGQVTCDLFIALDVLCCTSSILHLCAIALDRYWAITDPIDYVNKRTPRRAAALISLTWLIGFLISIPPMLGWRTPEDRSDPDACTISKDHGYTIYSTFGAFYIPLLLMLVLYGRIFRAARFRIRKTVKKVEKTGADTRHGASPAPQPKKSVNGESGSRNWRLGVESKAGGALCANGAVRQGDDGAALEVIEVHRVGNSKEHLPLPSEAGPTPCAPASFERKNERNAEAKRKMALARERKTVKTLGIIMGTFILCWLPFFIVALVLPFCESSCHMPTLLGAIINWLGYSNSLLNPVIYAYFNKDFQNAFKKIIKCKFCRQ

[9] = Selectivity ratio as antilogarithm of smallest difference between the pKi value at 5-HT6 receptor and range of comparator receptors
[10] = target: T3, 5-hydroxytryptamine receptor 2C (Homo sapiens, UniProt P28335); assay: Binding affinity to human cloned 5-hydroxytryptamine 2C receptor in HEK 293 cells using [3H]- mesulergine as radioligand; type: cell-based, HEK293
T3 sequence (P28335 whole entry): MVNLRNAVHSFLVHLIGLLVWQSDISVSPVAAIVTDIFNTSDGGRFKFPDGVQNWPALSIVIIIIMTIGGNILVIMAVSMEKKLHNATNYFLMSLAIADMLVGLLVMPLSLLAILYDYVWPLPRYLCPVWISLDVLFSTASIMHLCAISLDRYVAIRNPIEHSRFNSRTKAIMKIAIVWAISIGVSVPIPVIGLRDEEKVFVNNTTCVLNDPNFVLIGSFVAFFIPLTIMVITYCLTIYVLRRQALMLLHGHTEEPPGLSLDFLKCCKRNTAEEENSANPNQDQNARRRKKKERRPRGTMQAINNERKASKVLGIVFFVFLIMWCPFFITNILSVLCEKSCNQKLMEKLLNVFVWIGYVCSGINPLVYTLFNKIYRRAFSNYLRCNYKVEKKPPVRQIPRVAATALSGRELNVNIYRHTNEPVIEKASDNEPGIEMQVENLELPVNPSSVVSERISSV

[11] = target: T1, 5-hydroxytryptamine receptor 6; assay: Binding affinity to human cloned 5-hydroxytryptamine 6 receptor in HeLa cells using [3H]- LSD as radioligand; type: cell-based

Sequence of 5-hydroxytryptamine receptor 1B (P28222 whole entry): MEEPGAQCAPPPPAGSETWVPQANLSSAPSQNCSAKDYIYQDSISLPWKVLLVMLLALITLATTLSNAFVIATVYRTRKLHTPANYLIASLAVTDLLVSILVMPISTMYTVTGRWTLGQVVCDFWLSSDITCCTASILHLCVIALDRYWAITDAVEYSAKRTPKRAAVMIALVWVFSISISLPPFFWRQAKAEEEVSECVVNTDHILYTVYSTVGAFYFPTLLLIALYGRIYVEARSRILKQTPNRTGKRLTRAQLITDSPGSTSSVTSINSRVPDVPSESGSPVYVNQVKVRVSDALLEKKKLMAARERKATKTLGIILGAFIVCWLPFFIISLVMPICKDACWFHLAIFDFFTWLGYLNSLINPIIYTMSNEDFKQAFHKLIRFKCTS
Sequence of 5-hydroxytryptamine receptor 2A (P28223 whole entry): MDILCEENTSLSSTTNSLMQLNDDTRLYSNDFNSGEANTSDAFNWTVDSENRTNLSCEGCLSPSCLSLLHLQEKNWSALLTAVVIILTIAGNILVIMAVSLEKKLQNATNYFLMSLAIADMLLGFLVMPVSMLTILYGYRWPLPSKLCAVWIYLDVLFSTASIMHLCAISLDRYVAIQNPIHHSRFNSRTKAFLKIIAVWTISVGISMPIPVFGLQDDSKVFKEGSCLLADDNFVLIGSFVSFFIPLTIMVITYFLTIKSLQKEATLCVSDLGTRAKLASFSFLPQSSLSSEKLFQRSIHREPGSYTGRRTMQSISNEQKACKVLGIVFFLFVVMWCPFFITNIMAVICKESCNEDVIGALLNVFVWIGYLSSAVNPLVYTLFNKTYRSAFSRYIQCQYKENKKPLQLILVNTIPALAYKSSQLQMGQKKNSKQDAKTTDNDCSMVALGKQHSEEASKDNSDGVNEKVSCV
Sequence of D(2) dopamine receptor (P14416 whole entry): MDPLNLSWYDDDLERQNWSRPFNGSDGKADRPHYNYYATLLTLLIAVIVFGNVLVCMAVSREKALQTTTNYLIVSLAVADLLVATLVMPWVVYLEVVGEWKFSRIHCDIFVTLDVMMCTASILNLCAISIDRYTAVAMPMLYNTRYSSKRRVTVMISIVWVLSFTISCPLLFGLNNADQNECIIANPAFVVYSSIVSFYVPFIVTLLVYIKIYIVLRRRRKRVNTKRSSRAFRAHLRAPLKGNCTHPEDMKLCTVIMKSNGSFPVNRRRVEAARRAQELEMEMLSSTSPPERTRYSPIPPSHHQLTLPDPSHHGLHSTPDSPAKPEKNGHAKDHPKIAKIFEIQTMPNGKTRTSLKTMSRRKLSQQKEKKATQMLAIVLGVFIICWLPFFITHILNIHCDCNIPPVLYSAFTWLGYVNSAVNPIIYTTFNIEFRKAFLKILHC
T1 sequence (P50406 whole entry): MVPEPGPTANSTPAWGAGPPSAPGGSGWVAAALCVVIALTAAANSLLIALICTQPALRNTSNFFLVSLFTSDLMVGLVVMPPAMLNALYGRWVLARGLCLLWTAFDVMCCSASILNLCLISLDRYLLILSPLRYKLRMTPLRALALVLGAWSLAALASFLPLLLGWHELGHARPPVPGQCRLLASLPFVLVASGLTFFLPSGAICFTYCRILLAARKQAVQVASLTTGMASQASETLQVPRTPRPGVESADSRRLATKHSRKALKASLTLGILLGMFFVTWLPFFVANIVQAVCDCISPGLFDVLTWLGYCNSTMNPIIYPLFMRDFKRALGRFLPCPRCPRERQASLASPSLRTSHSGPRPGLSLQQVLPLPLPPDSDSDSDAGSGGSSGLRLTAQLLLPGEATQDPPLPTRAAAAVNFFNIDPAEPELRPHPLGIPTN
Sequence of D(3) dopamine receptor (P35462 whole entry): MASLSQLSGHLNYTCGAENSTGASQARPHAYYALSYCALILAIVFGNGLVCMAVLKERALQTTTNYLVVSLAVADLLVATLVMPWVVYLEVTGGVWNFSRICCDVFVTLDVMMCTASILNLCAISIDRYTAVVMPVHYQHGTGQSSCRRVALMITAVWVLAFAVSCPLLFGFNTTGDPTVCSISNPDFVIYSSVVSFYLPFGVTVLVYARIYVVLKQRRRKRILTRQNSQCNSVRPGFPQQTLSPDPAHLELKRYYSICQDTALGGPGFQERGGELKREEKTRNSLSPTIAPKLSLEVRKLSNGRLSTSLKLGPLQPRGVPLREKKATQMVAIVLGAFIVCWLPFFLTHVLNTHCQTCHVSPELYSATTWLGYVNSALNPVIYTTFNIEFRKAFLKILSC
Sequence of 5-hydroxytryptamine receptor 7 (P34969 whole entry): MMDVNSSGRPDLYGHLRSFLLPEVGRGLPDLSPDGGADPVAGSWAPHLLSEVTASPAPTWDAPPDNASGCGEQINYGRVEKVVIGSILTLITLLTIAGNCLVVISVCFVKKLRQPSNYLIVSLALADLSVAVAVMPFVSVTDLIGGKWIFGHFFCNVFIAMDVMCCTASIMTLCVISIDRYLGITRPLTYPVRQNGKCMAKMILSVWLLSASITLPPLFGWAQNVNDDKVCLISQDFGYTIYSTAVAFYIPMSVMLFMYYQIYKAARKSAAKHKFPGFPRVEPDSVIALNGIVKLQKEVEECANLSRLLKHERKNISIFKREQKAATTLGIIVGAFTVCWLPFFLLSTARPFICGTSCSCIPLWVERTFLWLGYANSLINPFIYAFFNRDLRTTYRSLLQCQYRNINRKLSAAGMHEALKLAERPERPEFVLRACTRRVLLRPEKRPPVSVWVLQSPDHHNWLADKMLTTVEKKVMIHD
Sequence of 5-hydroxytryptamine receptor 1D (P28221 whole entry): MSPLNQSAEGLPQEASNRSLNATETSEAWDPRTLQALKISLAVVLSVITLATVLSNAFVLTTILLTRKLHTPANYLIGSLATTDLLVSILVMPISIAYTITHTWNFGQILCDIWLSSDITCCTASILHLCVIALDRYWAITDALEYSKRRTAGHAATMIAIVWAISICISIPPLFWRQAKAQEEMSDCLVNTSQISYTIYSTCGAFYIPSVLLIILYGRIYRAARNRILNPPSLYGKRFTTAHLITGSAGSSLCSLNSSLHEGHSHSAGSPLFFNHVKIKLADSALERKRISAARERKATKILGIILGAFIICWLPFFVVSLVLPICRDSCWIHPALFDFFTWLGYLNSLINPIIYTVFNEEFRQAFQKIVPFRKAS
Sequence of 5-hydroxytryptamine receptor 2B (P41595 whole entry): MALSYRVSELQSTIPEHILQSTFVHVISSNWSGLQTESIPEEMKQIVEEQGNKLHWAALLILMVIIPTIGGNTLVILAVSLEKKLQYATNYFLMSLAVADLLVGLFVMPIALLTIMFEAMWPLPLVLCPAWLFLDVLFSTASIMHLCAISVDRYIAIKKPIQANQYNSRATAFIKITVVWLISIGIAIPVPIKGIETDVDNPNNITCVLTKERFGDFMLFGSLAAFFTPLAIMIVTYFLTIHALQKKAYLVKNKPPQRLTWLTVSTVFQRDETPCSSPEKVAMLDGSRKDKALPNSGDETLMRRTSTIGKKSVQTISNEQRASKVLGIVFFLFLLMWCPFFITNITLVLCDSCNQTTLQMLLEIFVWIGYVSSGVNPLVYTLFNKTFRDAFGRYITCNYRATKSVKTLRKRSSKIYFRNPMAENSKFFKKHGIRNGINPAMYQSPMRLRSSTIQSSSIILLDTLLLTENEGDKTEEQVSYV

SMILES: Cc1c(S(=O)(=O)Nc2ccc3nccc(N4CCN[C@@H](C)C4)c3c2)sc2ccc(Cl)cc12
Ki (D(3) dopamine receptor): > 2000 nM
Ki [1]: 398 nM
Ki [2]: > 5010 nM
Ki (D(2) dopamine receptor): > 3160 nM
Ki [3]: 1.26 nM
Ki [4]: 2510 nM
Ki [5]: > 6310 nM
Ki [6]: 1.26 nM
Ki [7]: > 2510 nM
Ki [8]: 1000 nM
Selectivity ratio [9]: 320
Ki [10]: > 3980 nM

SMILES: Cc1c(S(=O)(=O)Nc2ccc3nccc(N4CCN(C)CC4)c3c2)sc2ccc(Cl)cc12
Ki (D(3) dopamine receptor): > 3980 nM
Ki [1]: 251 nM
Ki [2]: 2000 nM
Ki (D(2) dopamine receptor): > 7940 nM
Ki [3]: 1 nM
Ki [4]: 501 nM
Ki [5]: > 10000 nM
Ki [6]: 1 nM
Ki [7]: 1000 nM
Ki [8]: 794 nM
Selectivity ratio [9]: 250
Ki [10]: > 5010 nM

SMILES: Cc1c(S(=O)(=O)Nc2ccc3nccc(N4C[C@@H](C)NC[C@@H]4C)c3c2)sc2ccc(Cl)cc12
Ki [6]: 31.6 nM

SMILES: O=S(=O)(Nc1ccc2nccc(N3CCNCC3)c2c1)c1ccc2c(Cl)cccc2c1
Ki (D(3) dopamine receptor): 2510 nM
Ki [1]: 200 nM
Ki [2]: 2510 nM
Ki (D(2) dopamine receptor): > 5010 nM
Ki [3]: 1 nM
Ki [4]: 631 nM
Ki [5]: > 5010 nM
Ki [6]: 1 nM
Ki [7]: 1000 nM
Ki [8]: 158 nM
Selectivity ratio [9]: 160
Ki [10]: > 2510 nM

SMILES: O=S(=O)(Nc1ccc2nccc(N3CCNCC3)c2c1)c1ccc(I)cc1
Ki [6]: 1.58 nM
Selectivity ratio [9]: 100

SMILES: Cc1c(S(=O)(=O)Nc2ccc3nccc(N4CCNCC4)c3c2)oc2ccc(Cl)cc12
Ki [6]: 3.98 nM
Selectivity ratio [9]: 200

SMILES: Cc1c(S(=O)(=O)Nc2ccc3nccc(N4C[C@@H](C)N[C@@H](C)C4)c3c2)sc2ccc(Cl)cc12
Ki [6]: 5.01 nM
Selectivity ratio [9]: 160

SMILES: Cc1c(S(=O)(=O)Nc2ccc3nccc(N4CCN[C@H](C(C)C)C4)c3c2)sc2ccc(Cl)cc12
Ki [6]: 20 nM

SMILES: Cc1c(S(=O)(=O)Nc2ccc3nccc(N4CCN[C@H](C)C4)c3c2)sc2ccc(Cl)cc12
Ki [6]: 2 nM
Selectivity ratio [9]: 3200

SMILES: Cc1c(S(=O)(=O)Nc2ccc3nccc(N4CCN5CCC[C@H]5C4)c3c2)sc2ccc(Cl)cc12
Ki [6]: 2 nM
Selectivity ratio [9]: 130

SMILES: Cc1cc(N2CCNCC2)c2cc(NS(=O)(=O)c3sc4ccc(Cl)cc4c3C)ccc2n1
Ki (D(3) dopamine receptor): > 1000 nM
Ki [1]: 316 nM
Ki [2]: > 5010 nM
Ki (D(2) dopamine receptor): > 6310 nM
Ki [3]: 1.26 nM
Ki [4]: 1260 nM
Ki [5]: > 7940 nM
Ki [6]: 1.26 nM
Ki [7]: > 2000 nM
Ki [8]: 794 nM
Selectivity ratio [9]: 250
Ki [10]: 2510 nM

SMILES: Cc1c(S(=O)(=O)Nc2ccc3ncc(N4CCN(C)CC4)cc3c2)sc2ccc(Cl)cc12
Ki [6]: 79.4 nM

SMILES: O=S(=O)(Nc1ccc2nccc(N3CCNCC3)c2c1)c1cccc2c(Cl)cccc12
Ki [6]: 3.16 nM
Selectivity ratio [9]: 80

SMILES: Cc1cnc2ccc(NS(=O)(=O)c3sc4ccc(Cl)cc4c3C)cc2c1N1CCNCC1
Ki [6]: 2.51 nM
Selectivity ratio [9]: 100

SMILES: O=S(=O)(Nc1ccc2nccc(N3CCNCC3)c2c1)c1ccc(-c2ccccc2)cc1
Ki (D(3) dopamine receptor): > 3160 nM
Ki [1]: 158 nM
Ki [2]: > 10000 nM
Ki (D(2) dopamine receptor): > 5010 nM
Ki [3]: 0.501 nM
Ki [4]: 316 nM
Ki [5]: > 7940 nM
Ki [6]: 0.501 nM
Ki [7]: 501 nM
Ki [8]: 631 nM
Selectivity ratio [9]: 320

SMILES: CC(C)(C)c1ccc(S(=O)(=O)Nc2ccc3nccc(N4CCNCC4)c3c2)cc1
Ki (D(3) dopamine receptor): > 5010 nM
Ki [1]: 1260 nM
Ki [2]: > 10000 nM
Ki (D(2) dopamine receptor): > 10000 nM
Ki [4]: 1580 nM
Ki [5]: > 5010 nM
Ki [6]: 0.631 nM
Ki [7]: > 3160 nM
Ki [8]: 794 nM
Ki [11]: 0.631 nM
Selectivity ratio [9]: 1260
Ki [10]: > 2000 nM

Continued, values first:

Ki (D(3) dopamine receptor): > 1580 nM
Ki [1]: 398 nM
Ki [2]: 1580 nM
Ki (D(2) dopamine receptor): > 3980 nM
Ki [3]: 1 nM
Ki [4]: 501 nM
Ki [5]: 1260 nM
Ki [6]: 1 nM
Ki [7]: > 2000 nM
Ki [8]: 251 nM
Selectivity ratio [9]: 250
Ki [10]: 1260 nM
SMILES: Cc1sc2ccc(Cl)cc2c1S(=O)(=O)Nc1ccc2nccc(N3CCNCC3)c2c1

Ki [6]: 6.31 nM
Selectivity ratio [9]: 25
SMILES: Cc1c(S(=O)(=O)Nc2ccc3nccc(N4CCNCC4)c3c2)sc2c(Cl)cc(Cl)cc12

Ki [6]: 2 nM
Selectivity ratio [9]: 130
SMILES: Cc1sc2c(Cl)cccc2c1S(=O)(=O)Nc1ccc2nccc(N3CCNCC3)c2c1

Ki [6]: 25.1 nM
SMILES: O=S(=O)(Nc1ccc2nccc(N3CCNCC3)c2c1)c1cc(Cl)cc(Cl)c1

Ki [6]: 1.58 nM
Selectivity ratio [9]: 160
SMILES: CC(C)c1c(S(=O)(=O)Nc2ccc3nccc(N4CCNCC4)c3c2)sc2ccc(Cl)cc12

Ki [6]: 7.94 nM
Selectivity ratio [9]: 40
SMILES: Cc1sc2cc(Cl)cc(Cl)c2c1S(=O)(=O)Nc1ccc2nccc(N3CCNCC3)c2c1

Ki [6]: 1.26 nM
Selectivity ratio [9]: 500
SMILES: Cc1cc(S(=O)(=O)Nc2ccc3nccc(N4CCNCC4)c3c2)c(C)cc1Cl

Ki (D(3) dopamine receptor): > 1580 nM
Ki [1]: 631 nM
Ki [2]: > 7940 nM
Ki (D(2) dopamine receptor): > 10000 nM
Ki [3]: 2 nM
Ki [4]: 2000 nM
Ki [5]: > 5010 nM
Ki [6]: 2 nM
Ki [7]: > 2510 nM
Ki [8]: 1000 nM
Selectivity ratio [9]: 320
Ki [10]: > 2510 nM
SMILES: Cc1c(S(=O)(=O)Nc2ccc3nccc(N4CCNCC4)c3c2)sc2ccc(Cl)cc12

Ki [6]: 2 nM
Selectivity ratio [9]: 200
SMILES: Cc1sc2c(Cl)cc(Cl)cc2c1S(=O)(=O)Nc1ccc2nccc(N3CCNCC3)c2c1

Ki (D(3) dopamine receptor): > 10000 nM
Ki [1]: 2510 nM
Ki [2]: > 5010 nM
Ki (D(2) dopamine receptor): > 1000 nM
Ki [3]: 1.26 nM
Ki [4]: 3160 nM
Ki [5]: > 3980 nM
Ki [6]: 1.26 nM
Ki [7]: > 1260 nM
Ki [8]: > 3980 nM
Selectivity ratio [9]: 1000
Ki [10]: 1260 nM
SMILES: CCc1c(S(=O)(=O)Nc2ccc3nccc(N4CCNCC4)c3c2)sc2ccc(Cl)cc12
